US4361573A, “α,α-Diaryl-β-(tert-amino)-propanols and diuretic pharmaceutical compositions containing them” (Temmler AG, priority 1974, dated 1982)
Where two headings read alike, the source gives them in different places.

How the values were obtained:
[1] = comparison of toxicity in mice: oral LD50 by the Lichtfiel & Wilcoxon method; format: in vivo; settings: mouse, in vivo, observation period 7 days, 95% confidence limit in brackets, read-out: LD50
Excerpt: In Table 3 the mean lethal doses for mice, administered orally (LD50 determination by the […] & WILCOXON method - J.Pharmacol. Exp. Ther. 96,98 (1949)) are compared.

[2] = saluretic efficiency test in rats: elimination of water, sodium, chloride and potassium in 6 h urine after oral dosing; format: in vivo; settings: for change in vivo at 40 µmol/kg / change in vivo at 80 µmol/kg: Rattus norvegicus; for change in vivo at 40 µmol/kg / change in vivo at 80 µmol/kg / Quotient Na/K: rats, oral
Experimental: In order to test the saluretic efficiency of the compounds of the invention rats having a weight of 150 to 200 g were used. The animals were kept without food, but not without drinking water, for 15 hours before the beginning of the test. The test substances were administered to groups of four rats, of substantially equal weight, with a rigid stomach probe in a 1% methyl cellulose slime. The dose required per 100 g animal (unit dosage in μmol/kg body weight) was contained in one ml. Following the administration of the substance the rats were given 5 ml 0.9% sodium chloride solution per 100 g body weight p.o. and placed in a diuresis funnel after manually emptying the bladder. Urine was collected for 6 hours in an airconditioned chamber at 24°±1° C. and a relative air humidity of 50±5%. The diuretic effect of a particular dose was tested on at least two, but more frequently however on four to eight groups of rats. Two sodium chloride controls were also used for each test day.
At the end of the collecting periods the volumes of urine discharged per group were noted and the pH value and also the content of sodium, potassium (flame-photometrically) and chloride (measured argentometrically with the determination of the end point potentiometrically) were determined.
From the analysis results the quantities of Na^+, K^+ and Cl^- eliminated were calculated in […] body weight, and the values thus obtained compared with those of the control animals.
Means values and twice the standard deviation were calculated from the data for the sodium chloride controls, in order to determine the normal range. Then, for the values found with the test substances, the percentage variations from the average in respect of these parameters were calculated and tabulated. In this connection, with the results given in Table 1, the upper limit of the normal range, which is defined as the mean value plus twice the standard deviation, was selected as the reference quantity for the variations. In this way relevant hyper-eliminations could clearly be recognised.
In Table 2, the mean percentage variations in potassium elimination after administration of the compounds in accordance with the invention are compared with the mean value of the potassium elimination in the case of the sodium chloride controls. At the same time the […] ratio is given which provides conclusive evidence of the effective saluretic property. The larger this quotient is, then the more sodium than potassium is eliminated in proportion.

[3] = 6 h, 40 μmol/kg body wt., relative to mean K+ elimination of the controls, read-out: Mean percentage variation in the elimination of potassium
[4] = 6 h, 80 μmol/kg body wt., relative to mean K+ elimination of the controls, read-out: Mean percentage variation in the elimination of potassium
[5] = 40 μmol/kg body wt., deviation from control mean plus twice the standard deviation, 6 h urine, read-out: Mean percentage variation in the elimination of Chloride
[6] = 40 μmol/kg body wt., deviation from control mean plus twice the standard deviation, 6 h urine, read-out: Mean percentage variation in the elimination of H2O
[7] = 40 μmol/kg body wt., deviation from control mean plus twice the standard deviation, 6 h urine, read-out: Mean percentage variation in the elimination of Sodium
[8] = 80 μmol/kg body wt., deviation from control mean plus twice the standard deviation, 6 h urine, read-out: Mean percentage variation in the elimination of Chloride
[9] = 80 μmol/kg body wt., deviation from control mean plus twice the standard deviation, 6 h urine, read-out: Mean percentage variation in the elimination of H2O
[10] = 80 μmol/kg body wt., deviation from control mean plus twice the standard deviation, 6 h urine, read-out: Mean percentage variation in the elimination of Sodium
[11] = dose of 10 mol/kg body weight, average

Structure (SMILES) | LD50 [1] [mg/kg] | change in vivo at 40 µmol/kg [2, 3] [%] | change in vivo at 80 µmol/kg [2, 4] [%] | change in vivo at 40 µmol/kg [2, 5] [%] | change in vivo at 40 µmol/kg [2, 6] [%] | change in vivo at 40 µmol/kg [2, 7] [%] | change in vivo at 80 µmol/kg [2, 8] [%] | change in vivo at 80 µmol/kg [2, 9] [%] | change in vivo at 80 µmol/kg [2, 10] [%] | Quotient Na/K ([2]; 40 μmol/kg body wt.) | Quotient Na/K ([2]; 80 μmol/kg body wt.) | maximum hyper-elimination, chloride ([2]; dose of 10 μmol/kg body weight, average) [%] | maximum hyper-elimination, sodium [2, 11] [%] | maximum hyper-elimination, water [2, 11] [%] | Na/K ratio of the quantities eliminated ([2]; maximum effective dose, 10 μmol/kg body wt.) | hyper-elimination of potassium ([2]; maximum effective dose, 10 mol/kg body wt.) [%]
CCOc1ccc(C(O)(c2cc(C(C)C)c(OC)c(C(C)C)c2)C(C)N2CCCCC2)cc1 (centres unmarked) [T 2258, 1-(4'-methoxy-3',5'-diisopropylphenyl)-1-(4"-ethoxyphenyl)-2-piperidino-propan-1-ol] | > 4500 | 19.4 | 1 | 12.8 | 28.1 | 22.9 | 17.3 | 32.3 | 24.6 | 6.11 | 7.32 |  |  |  |  | 
COc1ccc(C(O)(c2cc(C(C)C)c(OC)c(C(C)C)c2)C(C)N2CCCCC2)cc1 (centres unmarked) [T 2237, 1-(4'-methoxy-3',5'-diisopropylphenyl)-1-(4"-methoxyphenyl)-2-piperidino-propan-1-ol] | > 6400 | 13.3 | 19.4 | 24.3 | 40.8 | 32.1 | 57.1 | 67.9 | 59.8 | 6.93 | 7.95 |  |  |  |  | 
COc1ccc(C(O)(c2cc(C(C)C)c(OC)c(C(C)C)c2)C(C)N2CCCCC2)cc1OC (centres unmarked) [T 1882, 1-(4'-methoxy-3',5'-diisopropylphenyl)-1-(3",4"-dimethoxyphenyl)-2-piperidino-propan-1-ol] | 3400 | 13.3 | -12.2 | 6.3 | 17.7 | 24.4 | -4.4 | 7.5 | 9.5 | 6.52 | 7.41 |  |  |  |  | 
COc1cc(C)c(C(O)(c2ccccc2)C(C)N2CCCC2)cc1C(C)(C)C (centres unmarked) [T 1856, 1-(4'-methoxy-2'-methyl-5'-tert-butylphenyl)-1-phenyl-2-pyrrolidino-propan-1-ol] | 2200 | 25.5 | 22.4 | 19.4 | 41 | 30.6 | 32.5 | 59.7 | 47.6 | 6.18 | 7.16 |  |  |  |  | 
COc1ccc(C(O)(c2cc(C(C)(C)C)cc(C)c2OC)C(C)N2CCCCC2)cc1OC (centres unmarked) [T 2464, 1-(2'-methoxy-3'-methyl-5'-tertiary-butylphenyl)-1-(3",4"-dimethoxyphenyl)-2-piperidinopropan-1-ol] | > 4550 | 9.2 | -1 | 30.4 | 49.8 | 64.4 | 38.3 | 65.9 | 79 | 8.94 | 10.74 |  |  |  |  | 
COc1ccc(C)cc1C(O)(c1cc(C(C)C)c(OCc2ccccc2)c(C(C)C)c1)C(C)N1CCCCC1 (centres unmarked) [T 2481, 1-(2'-methoxy-5'-methylphenyl)-1-(4"-benzyloxy-3",5"-diisopropylphenyl)-2-piperidino-propan-1-ol] | 3780 | -4.1 | 16.3 | -7.5 | 3 | -2.4 | 20 | 34.1 | 43.8 | 6.04 | 7.34 |  |  |  |  | 
COc1c(C)cc(C(C)(C)C)cc1C(O)(c1ccccc1)C(C)N1CCCCC1 (centres unmarked) [T 1857, 1-(2'-methoxy-3'-methyl-5'-tert-butylphenyl)-1-phenyl-2-piperidino-propan-1-ol] | 3820 | 30.6 | 29.6 | 32.9 | 52 | 54.8 | 36 | 56.5 | 54.6 | 7.04 | 7.09 |  |  |  |  | 
Nc1nc(N)c2nc(-c3ccccc3)c(N)nc2n1 [2.4.7-triamino-6-phenyl-pteridine, reference compound] |  | -43.9 | -55.1 | -11.7 | -1 | -4 | -11.7 | -2 | -0.2 | 10.16 | 13.20 |  |  |  |  | 
COc1c(C)cc(C(O)(c2cc(Cl)cc(C)c2OC)C(C)N(C)C(C)(C)C)cc1C (centres unmarked) [T 2493, 1-(3'-chloro-6'-methoxy-5'-methylphenyl)-1-(4"-methoxy-3",5"-dimethylphenyl)-2-(N-methyl-tertiary-butylamino)-propan-1-ol] | 3610 | 35.7 | 34.7 | 41 | 59.2 | 62.7 | 41.5 | 64.4 | 76.8 | 7.74 | 7.88 |  |  |  |  | 
CCOc1c(C(C)C)cc(C(O)(c2ccc(OC)cc2)C(C)N2CCCCC2)cc1C(C)C (centres unmarked) [T 2310] | 520 | 14.3 | -2 | 8.9 | 41.3 | 27.3 | 36.3 | 67.9 | 42.3 | 6.62 | 8.64 |  |  |  |  | 
NS(=O)(=O)c1cc2c(cc1Cl)NCNS2(=O)=O [6-chloro-3.4.-dihydro-7-sulphamoyl-2H-1.2.4.-benzothiadiazine-1.1.-dioxide, reference compound] |  |  |  |  |  |  |  |  |  |  |  | 17.3 | 29.6 | 19.9 | 4.86 | 58.3
CCOc1ccc(C(O)(c2cc(C(C)C)c(OCC)c(C(C)C)c2)C(C)N2CCCCC2)cc1 (centres unmarked) [T 2453, 1-(4'-ethoxy-3',5'-diisopropylphenyl)-1-(4"-ethoxyphenyl)-2-piperidino-propan-1-ol] | 700 | -2 |  | 6.9 | 13.4 | 7.6 | 31.2 | 51.7 | 62.2 | 6.52 | 9.63 |  |  |  |  | 
COc1c(C)c(C)c(C(O)(c2ccccc2)C(C)N2CCCCC2)c(C)c1C (centres unmarked) [T 2152, 1-(4'-methoxy-2',3',5',6'-tetramethylphenyl)-1-phenyl-2-piperidino-propane-1-ol] |  | 9.2 | 9.2 | 11.6 | 22.9 | 22.7 | 5.6 | 22.6 | 20.4 | 6.67 | 6.55 |  |  |  |  | 
